The results in this text go back to ChEMBL document CHEMBL4371091, “Hypalocrinins, Taurine-Conjugated Anthraquinone and Biaryl Pigments from the Deep Sea Crinoid Hypalocrinus naresianus” (J Nat Prod, 2019).

Activity calls are given as the source filed them. The calls are words filed in the database; no cut-off is given here.

The nature of series [1]: Solubility of the compound in water. As to conditions: buffer. The class given is physicochemical.
For a further series, the system named is A549. As to the kind of experiment: Cytotoxicity against human A549 cells at 25 ug/ml. It is filed as functional, cell-based.
In another series the test system is HT-29. As to the kind of experiment: Cytotoxicity against human HT-29 cells at 25 ug/ml. It is filed as functional, cell-based.
The test system of the next series is MDA-MB-231. As to the kind of experiment: Cytotoxicity against human MDA-MB-231 cells at 25 ug/ml. The class given is functional, cell-based.
A further series deals with PSN1. As to the kind of experiment: Cytotoxicity against human PSN1 cells at 25 ug/ml. It is filed as functional, cell-based.

With `O=C(NCCS(=O)(=O)O)c1cc(OS(=O)(=O)O)c2c(c1)C(=O)c1cc(O)c(Br)c(O)c1C2=O`, the solubility result in series [1] was “Soluble”.
Regarding `O=C(O)c1cc(O)c2c(c1)C(=O)c1cc(O)c(Br)c(O)c1C2=O`, the solubility entry in series [1] was “Soluble”.
On the same count and under the same terms, in the case of `O=C(NCCS(=O)(=O)O)c1cc(O)c2c(c1)C(=O)c1c(c(O)c(Br)c(O)c1-c1c(O)cc3c(c1O)C(=O)c1c(OS(=O)(=O)O)cc(C(=O)NCCS(=O)(=O)O)cc1C3=O)C2=O` it was “Soluble”; in that of `O=C(NCCS(=O)(=O)O)c1cc(O)c2c(c1)C(=O)c1cc(O)c(CNCCS(=O)(=O)O)c(O)c1C2=O`, “Soluble”.
Still for that read-out and setting: the entry for `O=C(NCCS(=O)(=O)O)c1cc(O)c2c(c1)C(=O)c1cc(O)cc(O)c1C2=O` is “Soluble”.
Take `O=C(NCCS(=O)(=O)O)c1cc(O)c2c(c1)C(=O)c1cc(O)c(Br)c(O)c1C2=O`: in series [1], the solubility entry is listed as “Soluble”. Also, the outcome in the series on A549, with HT-29, in the series with MDA-MB-231 and in the series with PSN1 was inactive.
With `O=C(NCCS(=O)(=O)O)c1cc(OS(=O)(=O)O)c2c(c1)C(=O)c1cc(O)c(-c3c(O)c(Br)c(O)c4c3C(=O)c3cc(C(=O)NCCS(=O)(=O)O)cc(OS(=O)(=O)O)c3C4=O)c(O)c1C2=O`, the solubility result in series [1] was “Soluble”.
In the case of `CCCc1cc(O)c2c(c1)C(=O)c1cc(O)c(CNCCS(=O)(=O)O)c(O)c1C2=O`, the solubility entry in series [1] is reported as “Soluble”.
On the same count and under the same terms, in the case of `CCCc1cc(O)c2c(c1)C(=O)c1cc(OS(=O)(=O)O)cc(O)c1C2=O` it was “Soluble”.
